Results as given in PubChem BioAssay (NCI).
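Five compound concentrations were applied to cells in 96-well plates for 48 hours; endpoints were derived by simple linear interpolation of the resulting dose-response curve. GI50 marks 50% less growth. TGI: concentration producing complete growth inhibition.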

How the values were obtained:
Assay in all cases: NCI anticancer screen, dose series, 48 h
[1] = tested on: ACHN renal
[2] = tested on: EKVX NSCLC
[3] = tested on: TK-10 renal
[4] = tested on: A549 NSCLC
[5] = tested on: MALME-3M melanoma
[6] = tested on: MOLT-4 leukemia
[7] = tested on: SNB-75 CNS
[8] = tested on: SK-MEL-5 melanoma
[9] = tested on: MDA-MB-435
[10] = tested on: K-562 leukemia
[11] = tested on: HCT-15 colon
[12] = tested on: M14 melanoma
[13] = tested on: HCC-2998 colon
[14] = tested on: LOX IMVI melanoma
[15] = tested on: SF-268 CNS
[16] = tested on: UO-31 renal
[17] = tested on: NCI-H23 lung
[18] = tested on: MDA-MB-231 breast
[19] = tested on: SF-539 CNS
[20] = tested on: SK-MEL-2 melanoma
[21] = tested on: SK-OV-3 ovarian
[22] = tested on: SK-MEL-28 melanoma
[23] = tested on: A498 renal
[24] = tested on: CAKI-1 renal
[25] = tested on: OVCAR-3 ovarian
[26] = tested on: HOP-92 NSCLC
[27] = tested on: MDA-MB-468 breast
[28] = tested on: SW-620 colon
[29] = tested on: CCRF-CEM leukemia
[30] = tested on: U251 CNS

## COc1cc2c(c(OC)c1OC)C(=O)CC(c1cccc(NC(=O)c3cc(NC(=O)[C@H](C)N)ccc3Cl)c1)O2 (some centres undefined)
[1]
  GI50: 15.9 µM
  TGI: 31 µM
[2]
  GI50: 17.2 µM
  TGI: 35 µM
[3]
  GI50: 19.8 µM
  TGI: 42.7 µM
[4]
  GI50: 15.9 µM
  TGI: 33.3 µM
[5]
  GI50: 14.2 µM
  TGI: 27.7 µM
[6]
  GI50: 11 µM
  TGI: 34.6 µM
[7]
  GI50: 13.3 µM
  TGI: 65.1 µM
[8]
  GI50: 15.5 µM
  TGI: 29.4 µM
[9]
  GI50: 7.81 µM
  TGI: 21.4 µM
[10]
  GI50: 7.31 µM
  TGI: 91.9 µM
[11]
  GI50: 12 µM
  TGI: 26.9 µM
[12]
  GI50: 15.5 µM
  TGI: 32.6 µM
[13]
  GI50: 16.9 µM
  TGI: 31.3 µM
[14]
  GI50: 14.5 µM
  TGI: 29.6 µM
[15]
  GI50: 18 µM
  TGI: 42.8 µM
[16]
  GI50: 12 µM
  TGI: 24.7 µM
[17]
  GI50: 15.6 µM
  TGI: 31.2 µM
[18]
  GI50: 14.6 µM
  TGI: 28.5 µM
[19]
  GI50: 15.5 µM
  TGI: 28.8 µM
[20]
  GI50: 14.8 µM
  TGI: 33.2 µM
[21]
  GI50: 18.3 µM
  TGI: 42.2 µM
[22]
  GI50: 16.6 µM
  TGI: 30.2 µM
[23]
  GI50: 26 µM
  TGI: 90.5 µM
[24]
  GI50: 32.7 µM
  TGI: > 100 µM
[25]
  GI50: 17.5 µM
  TGI: 46.7 µM
[26]
  GI50: 14.5 µM
  TGI: 48.9 µM
[27]
  GI50: 13.5 µM
  TGI: 28.5 µM
[28]
  GI50: 15.7 µM
  TGI: 30.2 µM
[29]
  GI50: 18.5 µM
  TGI: 65 µM
[30]
  GI50: 13.9 µM
